{"source": "paper PMC8769378", "about": "“Underlining the Importance of Peripheral Protic Functional Groups to Enhance the Proton Exchange of Gd-Based MRI Contrast Agents” (Inorganic Chemistry, 2021)", "test": "Protonation constants of the Gd^III complexes by pH potentiometry", "assay_type": "physicochemical", "conditions": "0.15 M NaCl, 298 K", "text": "The metal complexes of biomedical interest must show a high in vivo stability, which includes high thermodynamic stability and kinetic inertness to allow targeting applications and to avoid possible toxic effects derived by metal ion and ligand release via transmetalation or transchelation reactions.[2],[3],[13] The protonation constants of L2 as well as the stability and the protonation constants of GdL2 and those of the most important endogenous divalent metal complexes (Ca^II-, Zn^II-, and Cu^II) were determined by pH potentiometry (Table 1 and Table S1). In the case of GdL1, we were interested in determining the dissociation constant of the hydroxyl group that was measured also by pH potentiometry (Table 1). […]\nThe stability and protonation constants of Ca^2+, Zn^2+, and Cu^2+ complexes formed with the […] ligand were determined by pH potentiometric titration. […] The protonation constants of the GdL1 and GdL2 complexes were determined using pH potentiometry by titrating the preprepared complexes from pH = 3.0 to pH = 12 for GdL2 and from pH = 4.0 to pH = 12 for GdL1 with 0.2 M NaOH. The stability constants of GdL2 were determined by the “out-of-cell” technique because of the slow formation reaction. The pH range of the complexation equilibria and the time needed to reach the equilibria were determined by relaxometry for the formation of GdL2. […]"}
{"smiles": "O=C(O)CN1CCN(CC(=O)O)CCN(C[C@@H](O)C(=O)O)CCN(CC(=O)O)CC1", "note": "[L2, (R)2,2′,2″-(10-(2-Carboxy-2-hydroxyethyl)-1,4,7,10-tetraazacyclododecane-1,4,7-triyl) Triacetic Acid]", "values": [{"measurement": "Gd(L)H–1 (log KGd(L)H-1, protonation constant of the alkoxide)", "result": "9.58 (3)"}, {"measurement": "Gd(HL) (log K, protonation constant of the Gd complex)", "setting": "carboxylate of the 2-hydroxypropanoic arm", "result": "3.36 (3)"}]}
